According to patent US12144820B2, “Dry powder formulations for inhalation” (VECTURA INC., priority 2016, dated 2024):
≈ marks a conversion by molar mass, not a printed value. Like-named read-outs stand apart in the source and are kept apart here.

Assays:
Format in all cases: physicochemical
[1] = Chemical stability of aspirin in ASA/Leucine formulations by RP-HPLC after storage; conditions: reference standard, no storage condition
Procedure: Chemical stability of aspirin in the formulations were tested by RP-HPLC before and after the formulations were exposed to various storage conditions.

[2] = Potency and purity by RP-HPLC of aspirin/leucine formulations; conditions: before storage
Procedure: The properties of the ASA formulation were evaluated, including geometric particle size distribution (e.g., using laser diffraction such as the Malvern Dry Method); particle morphology (e.g., using scanning electron microscopy (SEM)); ID/Assay and purity (e.g., by HPLC); X-ray powder diffraction (XRPD); and aerosol properties by NGI.

[3] = ASA and L-leucine mixing solubility; conditions: for precipitation after mixing: 5 wt. % total solids, on the order of minutes
Procedure: The objective is to apply absolute solubility of ASA and L-Leu to a mixing study to determine if a spray drying approach is feasible. ASA and L-leucine was independently dissolved in preferred solvent: ASA in EtOH, and L-leucine in a sulfuric acid solution (pH 4.0) (which may increase L-leucine solubility in water). Proposed formulations were evaluated at a final total solids of 7 wt. % and 5 wt. %. In one embodiment, solvent ratio was 25/75 EtOH/Water. Precipitation of components was analyzed visually.

[4] = ASA and L-leucine absolute solubility in EtOH/water blends
Procedure: To define the absolute solubility of ASA and L-leucine in a variety of solvent blends, solvent blends were evaluated for solubility of ASA and L-leucine by visual confirmation. As used in this example, unless specified otherwise, leucine is L-leucine.

[5] = ASA in ethanol spray solution stability evaluation; conditions: for % ASA Purity / % SA: 9 wt % ASA in ethanol
Procedure: ASA degrades to salicylic acid (SA) as a function of time and temperature due to dissolution. Initial and cold 1 day solutions contained less than 0.5% SA.
9 wt % ASA was added to ethanol with constant stirring to stainless steel vessels. Samples were either stirred at ambient room temperature (approx. 22° C.) or 4° C. and sampled at 1, 3 and 6 days (Table 34).

[6] = Anti-solvent evaluation of 5% w/w acetylsalicylic acid suspensions; conditions: 5% w/w suspension, room temperature
Procedure: After considering a number of factors in the end it was determined that only n-heptane and toluene fulfilled all the requirements, and therefore these were selected for further evaluation. Suspensions of acetylsalicylic acid at 5% w/w were prepared with the various anti-solvents, by charging the required amount of anti-solvent, charging the required amount of acetylsalicylic acid, and then stirring until a homogeneous suspension was obtained. The suspensions were qualitatively evaluated at room temperature and then filtered using a 0.45 μm membrane, which was then placed in an oven and dried at 60° C. until the solvent had completely evaporated. A quantitative analysis was performed on the residue that remained in the membrane by weighing the membrane before and after the test.

CC(=O)Oc1ccccc1C(=O)O [ASA Reference Standard]
ASA Purity (%) [1]: 99.76% | SA Impurity (%) [1]: 0.24%

CC(=O)Oc1ccccc1C(=O)O [ASA Standard]
ASA Purity [2]: 99.76 ± 0.11% | SA Purity [2]: 0.24 ± 0.11%

CC(C)C[C@H](N)C(=O)O [L-Leucine, L-leucine]
precipitation after mixing [3]: no evidence of precipitation | time to precipitation out of solution ([3]; 7 wt. % solids, 85/15 ASA/L-leucine formulation, after mixing): approximately 60 seconds | solubility ([4]; Neutral, EtOH/Water 0/100 (v/v), read-out: L-Leucine solubility): 10000 µg/mL (≈ 76.2 mM) | L-Leucine solubility ([4]; Neutral, EtOH/Water 25/75 (v/v)): 0.04 wt. % | L-Leucine solubility ([4]; Neutral, EtOH/Water 50/50 (v/v)): 0.03 wt. % | L-Leucine solubility ([4]; Neutral, EtOH/Water 75/25 (v/v)): 0.02 wt. % | L-Leucine solubility ([4]; Neutral, EtOH/Water 90/10 (v/v)): Insouble | solubility ([4]; aqueous buffer, pH 3, EtOH/Water 0/100 (v/v), read-out: L-Leucine solubility): 17000 µg/mL (≈ 130 mM) | solubility ([4]; aqueous with cosolvent or surfactant or cyclodextrin, Neutral, EtOH/Water 10/90 (v/v), read-out: L-Leucine solubility): 9000 µg/mL (≈ 68.6 mM) | solubility ([4]; aqueous with cosolvent or surfactant or cyclodextrin, Neutral, EtOH/Water 25/75 (v/v), read-out: L-Leucine solubility): 400 µg/mL (≈ 3.05 mM) | solubility ([4]; aqueous with cosolvent or surfactant or cyclodextrin, Neutral, EtOH/Water 50/50 (v/v), read-out: L-Leucine solubility): 300 µg/mL (≈ 2.29 mM) | solubility ([4]; aqueous with cosolvent or surfactant or cyclodextrin, pH 3, EtOH/Water 10/90 (v/v), read-out: L-Leucine solubility): 11000 µg/mL (≈ 83.9 mM) | solubility ([4]; aqueous with cosolvent or surfactant or cyclodextrin, pH 3, EtOH/Water 50/50 (v/v), read-out: L-Leucine solubility): 1000 µg/mL (≈ 7.62 mM) | solubility ([4]; organic solvent or mixture, Neutral, EtOH/Water 75/25 (v/v), read-out: L-Leucine solubility): 200 µg/mL (≈ 1.52 mM) | L-Leucine solubility ([4]; pH 3, EtOH/Water 0/100 (v/v)): 1.7 wt. % | L-Leucine solubility ([4]; pH 3, EtOH/Water 10/90 (v/v)): 1.0 wt. % | L-Leucine solubility ([4]; pH 3, EtOH/Water 50/50 (v/v)): 0.1 wt. %

CC(=O)Oc1ccccc1C(=O)O [acetylsalicylic acid]
precipitation after mixing [3]: no evidence of precipitation | % ASA Purity ([5]; Ambient Conditions, 1 Day): 98.0% | % SA ([5]; Ambient Conditions, 1 Day): 1.7% | % ASA Purity ([5]; Ambient Conditions, 3 Day): 90.5% | % SA ([5]; Ambient Conditions, 3 Day): 7.5% | % ASA Purity ([5]; Ambient Conditions, 6 Day): 90.5% | % SA ([5]; Ambient Conditions, 6 Day): 7.2% | % ASA Purity ([5]; Ambient Conditions, Initial): 99.9% | % SA ([5]; Ambient Conditions, Initial): 0.1% | % ASA Purity ([5]; Controlled 4° C., 1 Day): 99.1% | % SA ([5]; Controlled 4° C., 1 Day): 0.4% | % ASA Purity ([5]; Controlled 4° C., 3 Day): 97.5% | % SA ([5]; Controlled 4° C., 3 Day): 2.0% | % ASA Purity ([5]; Controlled 4° C., 6 Day): 96.7% | % SA ([5]; Controlled 4° C., 6 Day): 2.3% | % ASA Purity ([5]; Controlled 4° C., Initial): 99.9% | % SA ([5]; Controlled 4° C., Initial): 0% | SA content of spray solution ([5]; Initial and cold 1 day solutions): less than 0.5% | solubility behaviour in anti-solvent ([6]; n-heptane): phobic behavior | solubility behaviour in anti-solvent ([6]; toluene): partially soluble | ASA solubility ([4]; EtOH/Water 50/50 (v/v)): 7.5 wt. % | solubility ([4]; EtOH/Water 50/50 (v/v), aqueous with cosolvent or surfactant or cyclodextrin, read-out: ASA solubility): 72500 µg/mL (≈ 402 mM) | ASA solubility ([4]; EtOH/Water 75/25 (v/v)): 17.4 wt. % | solubility ([4]; EtOH/Water 75/25 (v/v), organic solvent or mixture, read-out: ASA solubility): 118000 µg/mL (≈ 653 mM) | ASA solubility ([4]; EtOH/Water 90/10 (v/v)): 21.4 wt. % | solubility ([4]; EtOH/Water 90/10 (v/v), organic solvent or mixture, read-out: ASA solubility): 220000 µg/mL (≈ 1220 mM) | ASA solubility ([4]; all solvent blends except 25/75 EtOH/water): up to 5 wt. % total solids
